Assays:
Type in all cases: in vivo
[1] = system: common ragweed (Ambrosia artemisiifolia L., AMBEL); assay: Pre-emerge greenhouse herbicide test, phytotoxicity rating; details: 14 days after application, rating scale 0-100
Procedure, shortened: (§1)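 Visual 0–100 injury rating (100 = all plants dead) taken 14 days after treatment. Rates of 125–1000 g ai/ha in acetone, 187 l/ha, were sprayed onto soil one day post-sowing; pots were surface-watered to incorporate, then bottom-watered.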

[2] = system: lambsquarters (Chenopodium album, CHEAL); assay: as above; details: 14 days after application, rating scale 0-100
Procedure, shortened: as §1

[3] = system: sicklepod (Cassia obtusifolia, CASOB); assay: as above; details: 14 days after application, rating scale 0-100
Procedure, shortened: as §1

[4] = system: velvetleaf (Abutilon theophrasti, ABUTH); assay: as above; details: 14 days after application, rating scale 0-100
Procedure, shortened: as §1

[5] = system: redroot pigweed (Amaranthus retroflexus, AMARE); assay: as above; details: 14 days after application, rating scale 0-100
Procedure, shortened: as §1

[6] = system: green foxtail (Setaria viridis, SETVI); assay: as above; details: 14 days after application, rating scale 0-100
Procedure, shortened: as §1

[7] = system: large crabgrass (Digitaria sanguinalis, DIGSA); assay: as above; details: 14 days after application, rating scale 0-100
Procedure, shortened: as §1

[8] = system: barnyardgrass (Echinochloa crusgalli, ECHCG); assay: as above; details: 14 days after application, rating scale 0-100
Procedure, shortened: as §1

[9] = system: Johnsongrass (Sorghum halepense, SORHA); assay: as above; details: 14 days after application, rating scale 0-100
Procedure, shortened: as §1

[10] = system: ivyleaf morningglory (Ipomoea hederacea, IPOHE); assay: as above; details: 14 days after application, rating scale 0-100
Procedure, shortened: as §1

[11] = system: soybean (Glycine max L., var. Pella 86, SOY); assay: Pre-emerge greenhouse test, crop damage rating; design: key to SOY crop damage rating: 0 = no damage, 100 = complete death of all plants; details: 14 days after application, rating scale 0-100
Procedure, shortened: as §1

[12] = system: lambsquarters (Chenopodium album, CHEAL); assay: Post-emerge greenhouse herbicide test, phytotoxicity rating; details: 14 days after application
Procedure, shortened: (§2)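 Scores use a 0 (no damage) to 100 (complete kill) scale, taken 14 days after a foliar spray. Acetone solutions with 0.25% v/v non-ionic surfactant were applied by track sprayer at 187 l/ha and 63-1000 g ai/ha to bottom-watered 2-3 leaf plants.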

[13] = system: sicklepod (Cassia obtusifolia, CASOB); assay: as above; details: 14 days after application
Procedure, shortened: as §2

[14] = system: velvetleaf (Abutilon theophrasti, ABUTH); assay: as above; details: 14 days after application
Procedure, shortened: as §2

[15] = system: redroot pigweed (Amaranthus retroflexus, AMARE); assay: as above; details: 14 days after application
Procedure, shortened: as §2

[16] = system: green foxtail (Setaria viridis, SETVI); assay: as above; details: 14 days after application
Procedure, shortened: as §2

[17] = system: large crabgrass (Digitaria sanguinalis, DIGSA); assay: as above; details: 14 days after application
Procedure, shortened: as §2

[18] = system: barnyardgrass (Echinochloa crusgalli, ECHCG); assay: as above; details: 14 days after application
Procedure, shortened: as §2

[19] = system: Johnsongrass (Sorghum halepense, SORHA); assay: as above; details: 14 days after application
Procedure, shortened: as §2

[20] = system: ivyleaf morningglory (Ipomoea hederacea, IPOHE); assay: as above; details: 14 days after application
Procedure, shortened: as §2

[21] = system: soybean (Glycine max L., var. Pella 86, SOY); assay: Post-emerge greenhouse test, crop damage rating; design: key to crop damage rating SOY: 0-100 scale: 0 = no damage, 100 = complete death of all plants; details: 14 days after application
Procedure, shortened: as §2

[22] = system: upland rice (Oryza sp., var.Tebonnet, RICE); assay: Pre-emerge greenhouse test, crop damage rating; details: 14 days after application, rating scale 0-100
Procedure, shortened: as §1

[23] = system: field corn (Zea mays L., var. Dekalb 535, CORN); assay: Pre-emerge greenhouse test, crop damage rating; details: 14 days after application, rating scale 0-100
Procedure, shortened: as §1

[24] = system: upland rice (Oryza sp., var.Tebonnet, RICE); assay: Post-emerge greenhouse test, crop damage rating; details: 14 days after application
Procedure, shortened: as §2

[25] = system: field corn (Zea mays L., var. Dekalb 535, CORN); assay: Post-emerge greenhouse test, crop damage rating; details: 14 days after application
Procedure, shortened: as §2

[26] = system: common ragweed (Ambrosia artemisiifolia L., AMBEL); assay: Post-emerge greenhouse herbicide test, phytotoxicity rating; details: 14 days after application
Procedure, shortened: as §2

CC(=O)Nc1ccc(Oc2cc(-n3c(=O)n4n(c3=S)CCCC4)c(F)cc2Cl)c(C(F)(F)F)c1 [Compound 8-16]
phytotoxicity rating AMBEL ([1]; 125 g ai/ha): 40
AMBEL phytotoxicity rating ([1]; Rate 500 g al/ha): 100
phytotoxicity rating CHEAL ([2]; 125 g ai/ha): 100
CHEAL phytotoxicity rating ([2]; Rate 500 g al/ha): 100
phytotoxicity rating CASOB ([3]; 125 g ai/ha): 0
CASOB phytotoxicity rating ([3]; Rate 500 g al/ha): 0
phytotoxicity rating ABUTH ([4]; 125 g ai/ha): 90
ABUTH phytotoxicity rating ([4]; Rate 500 g al/ha): 100
phytotoxicity rating AMARE ([5]; 125 g ai/ha): 80
AMARE phytotoxicity rating ([5]; Rate 500 g al/ha): 90
phytotoxicity rating SETVI ([6]; 125 g ai/ha): 0
SETVI phytotoxicity rating ([6]; Rate 500 g al/ha): 70
phytotoxicity rating DIGSA ([7]; 125 g ai/ha): 0
DIGSA phytotoxicity rating ([7]; Rate 500 g al/ha): 30
phytotoxicity rating ECHCG ([8]; 125 g ai/ha): 0
ECHCG phytotoxicity rating ([8]; Rate 500 g al/ha): 0
phytotoxicity rating SORHA ([9]; 125 g ai/ha): 0
SORHA phytotoxicity rating ([9]; Rate 500 g al/ha): 10
phytotoxicity rating IPOHE ([10]; 125 g ai/ha): 0
IPOHE phytotoxicity rating ([10]; Rate 500 g al/ha): 0
crop damage rating SOY ([11]; 125 g ai/ha): 0
SOY crop damage rating ([11]; Rate 500 g al/ha): 10
CHEAL phytotoxicity rating (0-100) ([12]; 63 g al/ha): 85
phytotoxicity rating CHEAL ([12]; rate 500 g ai/ha, scale 0-100): 95
CASOB phytotoxicity rating (0-100) ([13]; 63 g al/ha): 0
phytotoxicity rating CASOB ([13]; rate 500 g ai/ha, scale 0-100): 70
ABUTH phytotoxicity rating (0-100) ([14]; 63 g al/ha): 80
phytotoxicity rating ABUTH ([14]; rate 500 g ai/ha, scale 0-100): 100
AMARE phytotoxicity rating (0-100) ([15]; 63 g al/ha): 90
phytotoxicity rating AMARE ([15]; rate 500 g ai/ha, scale 0-100): 100
SETVI phytotoxicity rating (0-100) ([16]; 63 g al/ha): 10
phytotoxicity rating SETVI ([16]; rate 500 g ai/ha, scale 0-100): 30
DIGSA phytotoxicity rating (0-100) ([17]; 63 g al/ha): 0
phytotoxicity rating DIGSA ([17]; rate 500 g ai/ha, scale 0-100): 0
ECHCG phytotoxicity rating (0-100) ([18]; 63 g al/ha): 0
phytotoxicity rating ECHCG ([18]; rate 500 g ai/ha, scale 0-100): 0
SORHA phytotoxicity rating (0-100) ([19]; 63 g al/ha): 0
phytotoxicity rating SORHA ([19]; rate 500 g ai/ha, scale 0-100): 10
IPOHE phytotoxicity rating (0-100) ([20]; 63 g al/ha): 90
phytotoxicity rating IPOHE ([20]; rate 500 g ai/ha, scale 0-100): 75
SOY crop damage rating (0-100) ([21]; 63 g al/ha): 10
crop damage rating SOY ([21]; rate 500 g ai/ha, scale 0-100): 20
crop damage rating RICE ([22]; 125 g ai/ha): 0
RICE crop damage rating ([22]; Rate 500 g al/ha): 0
crop damage rating CORN ([23]; 125 g ai/ha): 0
CORN crop damage rating ([23]; Rate 500 g al/ha): 0
RICE crop damage rating (0-100) ([24]; 63 g al/ha): 0
crop damage rating RICE ([24]; rate 500 g ai/ha, scale 0-100): 0
CORN crop damage rating (0-100) ([25]; 63 g al/ha): 0
crop damage rating CORN ([25]; rate 500 g ai/ha, scale 0-100): 5
AMBEL phytotoxicity rating (0-100) ([26]; 63 g al/ha): 40
phytotoxicity rating AMBEL ([26]; rate 500 g ai/ha, scale 0-100): 40

From US6479435B1, “Diaryl ethers and processes for their preparation and herbicidal and desiccant compositions containing them” (ISK Americas Incorporated, priority 1997, dated 2002)
